# According to patent US4770996A, “Identification of individuals predisposed toward alcohol abuse” (priority 1986, dated 1988):
# Key:
# [1] = system: platelet adenylate cyclase; experiment: Platelet membrane adenylate cyclase (AC) assay, 32P-ATP to 32P-cAMP; type: biochemical, human; design: Adenylate Cyclase Activity - CsF-Stimulated / Adenylate Cyclase Activity - CsF-Stimulated, Mean ± SD: unit not given here; settings: for Adenylate Cyclase Activity - CsF-Stimulated / Adenylate Cyclase Activity - CsF-Stimulated, Mean ± SD / Enzyme Activity +CsF: CsF 10 mM; for Enzyme Activity +Gpp(NH)p / Enzyme Activity +PGE1 (1 uM): mean ± SD; for Enzyme Activity +Gpp(NH)p: Gpp(NH)p 10 uM
# Protocol: Platelets were prepared from whole blood (20 ml) which was obtained by venipuncture from healthy volunteers and alcoholic subjects. After standing at room temperature for approximately three to four hours in citrate-phosphate-dextrose solution, each blood sample was centrifuged at 180×G for two minutes. […] The PRP was centrifuged at 16,000 g for ten minutes. The pellet was resuspended in 50 ml of cold 50 mM Tris-HCl, pH 7.5, containing […] NaCl and 20 mM ethylene diamine tetraacetic acid (EDTA). The centrifugation was repeated twice, and the final pellet was resuspended in 1 ml of cold 5 mM Tris-HCl, pH 7.5, containing 5 mM EDTA. Suspensions were rapidly frozen at -70° C., and samples were stored at -70° C. for no longer than four weeks prior to assay. AC activity was assayed by a modification of previously described methods, Hoffman and Tabakoff, J. Pharmacol. Exptl. […] Platelets were thawed at room temperature, aliquots of platelets were diluted to 4 ml with 5 mM Tris-HCl buffer containing 5 mM EDTA, and the suspension was centrifuged at 39,000×G for ten minutes at 4° C. […] The reaction was stopped by placing the tubes in a boiling water bath for three minutes. […] The ^32 p-cAMP was isolated by sequential chromatography on Dowex (Sigma Chemical Co., St. Louis, Mo.) and alumina columns (Sigma Chemical Co., St. Louis, Mo.), Salomon et. al., Anal. […] To each column effluent, 10 ml of scintilation cocktail was added, and ^32 p-cAMP was quantitated in a liquid scintillation spectrometer. All values were corrected for percentage recovery of the product (^32 p-cAMP).
# [2] = system: platelet adenylate cyclase; settings: Jakobs et al., J. Recep. Res. 4:443-458, 1984; cited from earlier work
# [3] = target: T1, platelet monoamine oxidase (MAO) (Homo sapiens, UniProt P27338); experiment: Platelet monoamine oxidase (MAO) assay, deamination of 14C-PEA; type: biochemical; settings: for Percent Inhibition by 400 mM Ethyl Alcohol / Percent Inhibition by 400 mM Ethyl Alcohol, Mean ± SD / Percent Inhibition by 400 mM ETOH: 12 uM PEA; for Percent Inhibition by 400 mM ETOH: mean ± SD
# T1 construct: contained approximately 15 ug of platelet protein; from tissue; host or cells: platelets (membranes) from whole blood of volunteers and alcoholic subjects
# T1 sequence (P27338 1-520): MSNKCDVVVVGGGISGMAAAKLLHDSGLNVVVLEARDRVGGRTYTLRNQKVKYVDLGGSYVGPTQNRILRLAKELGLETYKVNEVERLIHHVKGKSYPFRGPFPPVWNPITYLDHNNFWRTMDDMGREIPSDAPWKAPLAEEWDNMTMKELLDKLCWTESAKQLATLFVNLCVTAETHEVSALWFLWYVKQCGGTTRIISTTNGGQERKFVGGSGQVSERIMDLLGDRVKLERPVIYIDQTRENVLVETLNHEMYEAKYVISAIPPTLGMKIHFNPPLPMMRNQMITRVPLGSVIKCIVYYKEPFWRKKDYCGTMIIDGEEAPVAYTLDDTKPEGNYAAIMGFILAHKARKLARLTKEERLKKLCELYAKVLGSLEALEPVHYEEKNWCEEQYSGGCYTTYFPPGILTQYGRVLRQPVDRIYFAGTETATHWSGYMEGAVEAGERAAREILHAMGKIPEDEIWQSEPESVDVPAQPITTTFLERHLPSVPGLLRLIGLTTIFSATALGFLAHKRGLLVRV
# Protocol: Platelets were prepared from whole blood (20 ml) which was obtained by venipuncture from healthy volunteers and alcoholic subjects. After standing at room temperature for approximately three to four hours in citrate-phosphate-dextrose solution, each blood sample was centrifuged at 180×G for two minutes. The platelet-rich plasma (PRP) was carefully removed and platelet count was determined from aliquots (20 ul) of the PRP with a Coulter S-plus Thrombocounter. The PRP was centrifuged at 16,000 g for ten minutes. The pellet was resuspended in 50 ml of cold 50 mM Tris-HCl, pH 7.5, containing […] NaCl and 20 mM ethylene diamine tetraacetic acid (EDTA). The centrifugation was repeated twice, and the final pellet was resuspended in 1 ml of cold 5 mM Tris-HCl, pH 7.5, containing 5 mM EDTA. Suspensions were rapidly frozen at -70° C., and samples were stored at -70° C. for no longer than four weeks prior to assay.
# To measure the deamination of ^14 C-PEA, assay mixtures (total volume, 0.3 ml) contained approximately 15 ug of platelet protein. Reactions were carried out in 0.1 M sodium phosphate, pH 7.4, at 37° C. A five-minute preincubation period preceded the addition of substrate, and blanks were preincubated in the presence of 1×10^-3 M pargyline. Appropriate concentrations of ^14 C-PEA (10,000 dpm per nmole) were added to initiate the reaction, and the incubation was carried out for 15 minutes. The reaction was stopped by placing the tubes in an ice bath and adding 1.0 ml of ice-cold unlabeled PEA solution (10^-4 M) to each assay tube. A 1-ml aliquot was then removed from each tube and placed on an Amberlite™ ion exchange column, Tabakoff et. al., Psychopharmacol. 87:152 (1985). The columns were washed with two 1-ml portions of distilled water and the effluent was collected in scintillation vials. Two additional ml of water and 20 ml of scintillation fluid were added to each vial, and radioactivity was determined in a liquid scintillation spectrometer. To study the effects of ethanol or other alcohols on MAO activity, the alcohols were added to incubation mixtures five minutes prior to the addition of substrate.
smiles,measurement,setting,value
"[Cs+].[F-] [CsF, cesium fluoride]",Adenylate Cyclase Activity - CsF-Stimulated,"[1]; control subject No. 5, Sample 1",83.6
same,Adenylate Cyclase Activity - CsF-Stimulated,"[1]; control subject No. 5, Sample 2 (one week interval)",69.5
same,Adenylate Cyclase Activity - CsF-Stimulated,"[1]; control subject No. 5, Sample 3 (one week interval)",72.3
same,"Adenylate Cyclase Activity - CsF-Stimulated, Mean ± SD","[1]; control subject No. 5, mean of 3 samples",75.1 ± 7.5
same,Adenylate Cyclase Activity - CsF-Stimulated,"[1]; control subject No. 6, Sample 1",104.2
same,Adenylate Cyclase Activity - CsF-Stimulated,"[1]; control subject No. 6, Sample 2 (one week interval)",98.0
same,Adenylate Cyclase Activity - CsF-Stimulated,"[1]; control subject No. 6, Sample 3 (one week interval)",100.2
same,"Adenylate Cyclase Activity - CsF-Stimulated, Mean ± SD","[1]; control subject No. 6, mean of 3 samples",100.8 ± 3.1
same,Enzyme Activity +CsF,"[1]; platelets of Alcoholics, mean (SD 27.8), n=107, significant vs control",78.2 pmole cAMP/mg protein/minute
same,Enzyme Activity +CsF,"[1]; platelets of Controls, mean (SD 28.7), n=49",97.9 pmole cAMP/mg protein/minute
same,Enzyme Activity +CsF,"[1]; platelets of Recovering Alcoholics, mean (SD 27.2), n=38, significant vs control",70.6 pmole cAMP/mg protein/minute
"Nc1nc2c(ncn2[C@@H]2O[C@H](COP(=O)(O)OP(=O)(O)NP(=O)(O)O)[C@@H](O)[C@H]2O)c(=O)[nH]1 [Gpp(NH)p, guanylylimidodiphosphate]",Enzyme Activity +Gpp(NH)p,"[1]; platelets of Alcoholics, n=43, significant vs control",37.8 ± 14.4 pmole cAMP/mg protein/minute
same,Enzyme Activity +Gpp(NH)p,"[1]; platelets of Controls, n=36",50.4 ± 15.0 pmole cAMP/mg protein/minute
same,Enzyme Activity +Gpp(NH)p,"[1]; platelets of Recovering Alcoholics, n=23, significant vs control",37.2 ± 16.5 pmole cAMP/mg protein/minute
Nc1ncnc2c1ncn2[C@@H]1O[C@H](COP(=O)(O)OP(=O)(O)OP(=O)(O)O)[C@@H](O)[C@H]1O [Mg-adenosine triphosphate],maximal activity (Vmax) of adenylate cyclase,"[1]; platelets of control subjects, 10 mM Mg++, varying ATP, mean±SD, n=3",15.1±2.4 pmole cAMP produced/min/mg pro
same,Km,"[1]; platelets of control subjects, 10 mM Mg++, varying ATP, mean±SEM, n=3, read-out: Km of adenylate cyclase for Mg-adenosine triphosphate (ATP)",20.1 ± 3.8 µM
[Na+] [Na^+],effect of sodium ion on stimulation of platelet AC activity,[2],inhibits stimulation of platelet AC activity
"CCCCC[C@H](O)/C=C/[C@H]1[C@H](O)CC(=O)[C@@H]1CCCCCCC(=O)O [PGE1, prostaglandin E1]",Enzyme Activity +PGE1 (1 uM),"[1]; platelets of Alcoholics, n=34, significant vs control",84.4 ± 36.1 pmole cAMP/mg protein/minute
same,Enzyme Activity +PGE1 (1 uM),"[1]; platelets of Controls, n=21",115.5 ± 32.9 pmole cAMP/mg protein/minute
same,Enzyme Activity +PGE1 (1 uM),"[1]; platelets of Recovering Alcoholics, n=8, significant vs control and vs alcoholics",42.7 ± 12.8 pmole cAMP/mg protein/minute
CCO [ethyl alcohol],nature of MAO inhibition by ethyl alcohol added in vitro,"[3]; in vitro, amount of inhibition depended on substrate concentration","reversible and was ""competitive"" in nature"
same,Percent Inhibition by 400 mM Ethyl Alcohol,"[3]; patient No. 1, Sample 1 (baseline)",7.0%
same,Percent Inhibition by 400 mM Ethyl Alcohol,"[3]; patient No. 1, Sample 2 (five days later)",7.6%
same,Percent Inhibition by 400 mM Ethyl Alcohol,"[3]; patient No. 1, Sample 3 (six days later)",6.1%
same,"Percent Inhibition by 400 mM Ethyl Alcohol, Mean ± SD","[3]; patient No. 1, mean of 3 samples",6.9 ± 0.8%
same,Percent Inhibition by 400 mM Ethyl Alcohol,"[3]; patient No. 2, Sample 1 (baseline)",13.1%
same,Percent Inhibition by 400 mM Ethyl Alcohol,"[3]; patient No. 2, Sample 2 (five days later)",7.9%
same,Percent Inhibition by 400 mM Ethyl Alcohol,"[3]; patient No. 2, Sample 3 (six days later)",9.8%
same,"Percent Inhibition by 400 mM Ethyl Alcohol, Mean ± SD","[3]; patient No. 2, mean of 3 samples",10.3 ± 2.6%
same,Percent Inhibition by 400 mM ETOH,"[3]; platelets of Alcoholics, n=54, P < 0.01 vs control",12.6 ± 7.0%
same,Percent Inhibition by 400 mM ETOH,"[3]; platelets of Controls, n=28",7.5 ± 6.9%
same,Percent Inhibition by 400 mM ETOH,"[3]; platelets of Recovering Alcoholics, n=22, P < 0.05 vs control",11.4 ± 6.2%
